Results: patent US7348427B2, “Antipathogenic benzamide compounds” (Genesoft Pharmaceuticals, Inc., priority 2001, dated 2008)

How the values were obtained:
[1] = test system: Candida albicans (ATCC 38247); assay: Antifungal MIC assay; assay type: cell-based; settings: B = C. albicans ATCC 38247
Source text: (§1) In vitro biological activity data were collected for a variety of microorganisms, including Bacillus cereus (ATCC 11778), Staphylococcus aureus (ATCC 27660, a methicillin resistant strain (MRSA); ATCC 13709, a methicillin sensitive strain (MSSA)); Streptococcus pneumoniae (ATCC 51422, a penicillin resistant strain (PRSP)), Enterococcus faecium (ATCC 51559, a vancomycin resistant strain (VRE)), and Staphylococcus epidermidis (ATCC 12228). Additionally, antifungal activity data were collected for Candida albicans (ATCC 38247).
(§2) Compounds according to this invention were screened for their in vitro activities against selected species of bacteria and fungi. The minimal inhibition concentration (MIC) of these compounds was determined using the National Committee for Clinical Laboratory Standards (NCCLS) broth microdilution assay in microtiter plates, as set forth in: (1) the guidelines of the National. Committee for Clinical Laboratory Standards (NCCLS) Document M7-A4 (NCCLS, 1997); (2) the guidelines of the National Committee for Clinical Laboratory Standards (NCCLS) Document M11-A4 (NCCLS, 1997); and (3) the guidelines and reference method of the National Committee for Clinical Laboratory Standards (NCCLS) Document M27-T (NCCLS, 1995). For antifungal assays, the method recommended in Murray, P R., 1995 Manual of Clinical Microbiology (ASM Press, Washington, D.C.), was employed.

E. faecalis ATCC 29212 = assay: MIC, NCCLS broth microdilution assay; assay type: cell-based, Enterococcus faecalis; settings: C = E. faecalis ATCC 29212
Description: as §2

[2] = test system: Bacillus cereus (ATCC 11778); assay: MIC, NCCLS broth microdilution assay; assay type: cell-based; settings: A = B. cereus ATCC 11778
Source text: as §1, §2

[3] = test system: Staphylococcus aureus (ATCC 13709, a methicillin sensitive strain (MSSA)); assay: MIC, NCCLS broth microdilution assay; assay type: cell-based; settings: E = S. aureus ATCC 13709
Source text: as §1, §2

[4] = test system: Staphylococcus aureus (ATCC 27660, a methicillin resistant strain (MRSA)); assay: MIC, NCCLS broth microdilution assay; assay type: cell-based; settings: F = S. aureus ATCC 27660
Source text: as §1, §2

S. pneumoniae ATCC 49619 = assay: MIC, NCCLS broth microdilution assay; assay type: cell-based, Streptococcus pneumoniae; settings: H = S. pneumoniae ATCC 49619
Description: as §2

Structure (SMILES)	Minimum Inhibitory Concentration (MIC) [1]	Minimum Inhibitory Concentration (MIC) (E. faecalis ATCC 29212)	Minimum Inhibitory Concentration (MIC) [2]	Minimum Inhibitory Concentration (MIC) [3]	Minimum Inhibitory Concentration (MIC) [4]	Minimum Inhibitory Concentration (MIC) (S. pneumoniae ATCC 49619)
Cn1cc(NC(=O)c2cc(NC(=O)c3cc(NC(=O)c4ccc(F)cc4F)c[nH]3)cn2C)cc1C(=O)NCCN1CCOCC1 [Compound A-1]	>32 µg/mL	+++ (+++ = MIC ≦ 4)	+++ (+++ = MIC ≦ 4)	+++ (+++ = MIC ≦ 4)	++ (++ = 4 < MIC < 12)	+++ (+++ = MIC ≦ 4)
C[C@@H]1CN(CCNC(=O)c2cc(NC(=O)c3cc(NC(=O)c4cc(NC(=O)c5ccc(F)cc5F)c[nH]4)cn3C)cn2C)C[C@H](C)O1 [Compound A-5]	>32 µg/mL	+++ (+++ = MIC ≦ 4)	+ (+ = 12 ≦ MIC ≦ 32)	+++ (+++ = MIC ≦ 4)	+++ (+++ = MIC ≦ 4)	++ (++ = 4 < MIC < 12)
C[C@@H]1CCC[C@H](C)N1CCNC(=O)c1cc(NC(=O)c2cc(NC(=O)c3cc(NC(=O)c4ccc(F)cc4F)c[nH]3)cn2C)cn1C [Compound A-10]	++ (++ = 4 < MIC < 12)	++ (++ = 4 < MIC < 12)	+++ (+++ = MIC ≦ 4)	+++ (+++ = MIC ≦ 4)	+++ (+++ = MIC ≦ 4)	+++ (+++ = MIC ≦ 4)
Cn1cc(NC(=O)c2cc(NC(=O)c3cc(NC(=O)c4ccc(F)cc4F)c[nH]3)cn2C)cc1C(=O)NCCCN1CCC(O)CC1 [Compound A-11]	+ (+ = 12 ≦ MIC ≦ 32)	+ (+ = 12 ≦ MIC ≦ 32)	+ (+ = 12 ≦ MIC ≦ 32)	++ (++ = 4 < MIC < 12)	+ (+ = 12 ≦ MIC ≦ 32)	+ (+ = 12 ≦ MIC ≦ 32)
CN(C)CC(C)(C)CNC(=O)c1cc(NC(=O)c2cc(NC(=O)c3cc(NC(=O)c4ccc(Cl)cc4F)c[nH]3)cn2C)cn1C [Compound A-14]	+ (+ = 12 ≦ MIC ≦ 32)	+++ (+++ = MIC ≦ 4)	+++ (+++ = MIC ≦ 4)	+++ (+++ = MIC ≦ 4)	+++ (+++ = MIC ≦ 4)	+++ (+++ = MIC ≦ 4)
CN(C)CCCCNC(=O)c1cc(NC(=O)c2cc(NC(=O)c3cc(NC(=O)c4ccc(Cl)cc4F)c[nH]3)cn2C)cn1C [Compound A-15]	+ (+ = 12 ≦ MIC ≦ 32)	+++ (+++ = MIC ≦ 4)	+++ (+++ = MIC ≦ 4)	+++ (+++ = MIC ≦ 4)	+++ (+++ = MIC ≦ 4)	+++ (+++ = MIC ≦ 4)
Cn1cc(NC(=O)c2cc(NC(=O)c3cc(NC(=O)c4ccc(Cl)cc4)c[nH]3)cn2C)cc1C(=O)NCCN1CCOCC1 [Compound A-34]	+ (+ = 12 ≦ MIC ≦ 32)	++ (++ = 4 < MIC < 12)	+++ (+++ = MIC ≦ 4)	–	–	+ (+ = 12 ≦ MIC ≦ 32)
Cn1cc(NC(=O)c2cc(NC(=O)c3ccc(F)cc3F)cn2C)cc1C(=O)NCCN1CCOCC1 [Compound B-2]	>32 µg/mL	+++ (+++ = MIC ≦ 4)	++ (++ = 4 < MIC < 12)	–	–	+++ (+++ = MIC ≦ 4)
Cn1cc(NC(=O)c2cc(NC(=O)c3cc(NC(=O)c4ccc(F)c(F)c4)cn3C)cn2C)cc1C(=O)NCCN1CCOCC1 [Compound B-31]	>32 µg/mL	+++ (+++ = MIC ≦ 4)	++ (++ = 4 < MIC < 12)	–	–	+++ (+++ = MIC ≦ 4)
Cn1cc(NC(=O)c2cc(NC(=O)c3cc(NC(=O)c4cccc(F)c4)cn3C)cn2C)cc1C(=O)NCCN1CCOCC1 [Compound B-38]	>32 µg/mL	+ (+ = 12 ≦ MIC ≦ 32)	+ (+ = 12 ≦ MIC ≦ 32)	–	–	+ (+ = 12 ≦ MIC ≦ 32)
Cn1cc(NC(=O)c2cc(NC(=O)c3cc(NC(=O)c4ccc(F)cc4Cl)cn3C)cn2C)cc1C(=O)NCCN1CCOCC1 [Compound B-45]	>32 µg/mL	++ (++ = 4 < MIC < 12)	++ (++ = 4 < MIC < 12)	–	–	+++ (+++ = MIC ≦ 4)
Cn1cc(NC(=O)c2cc(NC(=O)c3cc(NC(=O)c4ccc(F)c(Cl)c4)cn3C)cn2C)cc1C(=O)NCCN1CCOCC1 [Compound B-46]	>32 µg/mL	+++ (+++ = MIC ≦ 4)	+++ (+++ = MIC ≦ 4)	–	–	+++ (+++ = MIC ≦ 4)
Cn1cc(NC(=O)c2cc(NC(=O)c3cc(NC(=O)c4c(Cl)cccc4Cl)cn3C)cn2C)cc1C(=O)NCCN1CCOCC1 [Compound B-52]	>32 µg/mL	>32 µg/mL	>32 µg/mL	–	–	>32 µg/mL
Cn1cc(NC(=O)c2cc(NC(=O)c3cc(NC(=O)c4ccc(Cl)cc4Cl)cn3C)cn2C)cc1C(=O)NCCN1CCOCC1 [Compound B-55]	>32 µg/mL	+++ (+++ = MIC ≦ 4)	+++ (+++ = MIC ≦ 4)	–	–	+++ (+++ = MIC ≦ 4)
Cn1cc(NC(=O)c2cc(NC(=O)c3ccc(Cl)cc3)cn2C)cc1C(=O)NCCN1CCOCC1 [Compound B-57]	>32 µg/mL	+++ (+++ = MIC ≦ 4)	+ (+ = 12 ≦ MIC ≦ 32)	–	–	+++ (+++ = MIC ≦ 4)
Cn1cc(NC(=O)c2cc(NC(=O)c3cc(NC(=O)c4cccc(Cl)c4)cn3C)cn2C)cc1C(=O)NCCN1CCOCC1 [Compound B-59]	>32 µg/mL	++ (++ = 4 < MIC < 12)	+ (+ = 12 ≦ MIC ≦ 32)	–	–	++ (++ = 4 < MIC < 12)
Cn1cc(NC(=O)c2cc(NC(=O)c3cc(NC(=O)c4ccccc4Cl)cn3C)cn2C)cc1C(=O)NCCN1CCOCC1 [Compound B-60]	>32 µg/mL	+ (+ = 12 ≦ MIC ≦ 32)	+ (+ = 12 ≦ MIC ≦ 32)	–	–	+ (+ = 12 ≦ MIC ≦ 32)
Cn1cc(NC(=O)c2cc(NC(=O)c3cc(NC(=O)c4cccc(C(F)(F)F)c4)cn3C)cn2C)cc1C(=O)NCCN1CCOCC1 [Compound B-70]	>32 µg/mL	++ (++ = 4 < MIC < 12)	+ (+ = 12 ≦ MIC ≦ 32)	–	–	+ (+ = 12 ≦ MIC ≦ 32)
Cn1cc(NC(=O)c2cc(NC(=O)c3cc(NC(=O)c4ccc(C(F)(F)F)cc4)cn3C)cn2C)cc1C(=O)NCCN1CCOCC1 [Compound B-71]	>32 µg/mL	++ (++ = 4 < MIC < 12)	+ (+ = 12 ≦ MIC ≦ 32)	–	–	+++ (+++ = MIC ≦ 4)
